{"source": "patent US20160113931A1", "about": "“Method of treating and/or preventing neurodegenerative diseases” (University of Macau, priority 2014, published 2016)", "key": {"[1]": {"test_system": "SH-SY5Y cells", "test": "MPP+-induced cytotoxicity in SH-SY5Y cells (MTT assay)", "format": "cell-based, human", "settings": "30 μM, 2 h pre-treatment, 1 mM MPP+ 24 h", "protocol": "Cells were pre-treated with BHDPC (3, 10 and 30 μM) for 2 h and then incubated with or without 1 mM MPP^+ for further 24 h. Cell viability was measured by the MTT assay.\nThe human neuroblastoma SH-SY5Y cells were purchased from America Tissue Type Collection. The cells were maintained in DMEM medium supplemented with 10% fetal bovine serum and penicillin/streptomycin (100 U/mL; 100 μg/mL) in a 37° C., 5% CO2 incubator. All experiments were carried out 48 hours after the cells were seeded.\n(§1) The percentage of surviving cells was estimated by determining the activity of mitochondrial dehydrogenases with 3(4,5-dimethylthiazol-2-yl)-2,5-diphenyltetrazolium bromide (MTT) assay. After drug treatment, cells were incubated at 37° C. for 4 h in 0.5 mg/mL MTT solution. The medium was then removed, and 100 μL of DMSO was added to each well to dissolve the violet formazan crystals. The absorbance of the samples was measured at a wavelength of 570 nm with 655 nm as a reference wavelength. All values were normalized to the control groups.\nTo test the neuroprotective effects of BHDPC, SH-SY5Y cells were pre-treated with gradually increasing concentrations of BHDPC for 2 h and then treated with 1 mM MPP^+ for 24 hours. Cell viability was measured using the MTT assay."}, "[2]": {"test_system": "SH-SY5Y cells", "test": "MPP+-induced mitochondrial membrane potential loss (JC-1 assay)", "format": "cell-based, human", "settings": "2 h pre-treatment; for mitochondrial membrane potential (Δφm) compared to the control group: 2 mM MPP+, MPP+ alone 51%", "protocol": "(FIG. 6A) Δψm was determined by the JC-1 assay.\nJC-1 dye was used to monitor mitochondrial integrity. In brief, SH-SY5Y cells were seeded into black 96-well plates (5×10^3 cells/well). After treatment, the cells were incubated with JC-1 (10 μg/mL in medium) at 37° C. for 15 min and then washed twice with PBS. For signal quantification, the intensity of red fluorescence (excitation 560 nm, emission 595 nm) and green fluorescence (excitation 485 nm, emission 535 nm) were determined using a SpectraMax M5. Mitochondrial membrane potential (Δφm) was calculated as the ratio of JC-1 red/green fluorescence intensity and the value was normalized to the control group.\nLoss of mitochondrial membrane potential and apoptotic nuclei were hallmarks for early and late stage of apoptosis. To determine whether BHDPC could reduce MPP^+-induced mitochondrial membrane potential (Δφm) loss, the Δφm in SH-SY5Y cells was assessed by analyzing the red/green fluorescent intensity ratio of JC-1 staining (FIG. 6A)."}, "[3]": {"test_system": "caspase 3", "test": "Caspase 3 activity assay in SH-SY5Y cells", "format": "cell-based, human", "protocol": "After pre-treatment with 30 μM BHDPC or 0.1% DMSO (vehicle control) for 2 h, SH-SY5Y cells were incubated with or without 2 mM MPP^+ for another 36 h. (FIG. 6A) Δψm was determined by the JC-1 assay.\nAfter treatment, the activity of caspase 3 was measured using the commercially available EnzChek Caspase-3 Assay Kit (Invitrogen, USA) according to the manufacturer's protocol. Briefly, SH-SY5Y cells were lysed in lysis buffer and centrifuged at 12,500×g for 5 min. 15 μL of cell lysate was incubated with 50 μL of 2× substrate working solution at room temperature for 30 min in 96-well plates. The fluorescence intensity was then determined by a SpectraMax M5 microplate reader at an excitation wavelength of 490 nm and emission at 520 nm. The fluorescence intensity of each sample was normalized to the protein concentration of sample. All values of % caspase 3 activities were normalized to the control group.\nCaspase 3 activation plays a key role in the execution-phase of the apoptosis."}, "[4]": {"test_system": "oligodendroglial progenitor cells (OPCs)", "test": "Hydrogen peroxide-induced OPC death (MTT assay)", "format": "cell-based, rat", "settings": "30 μM, 200 μM hydrogen peroxide 6 h", "protocol": "(§2) OPCs were incubated with 30 μM BHDPC or 0.1% DMSO (vehicle control) for 2 h followed by the addition or not of 200 μM H2O2 for a further 6 h (FIG. 11A) or LPS (FIG. 11B) for 24 h.\nas §1\n(§3) Purified OPC cultures were prepared as described. In brief, primary rat mixed glial cell cultures were isolated from whole brains of postnatal day (P) 2 rats, dissociated into single cells, and cultured into poly-D-lysine (PDL) coated T75 tissue culture flasks. Plating medium consisted of Dulbecco's modified Eagle's medium (DMEM, Invitrogen, Carlsbad, Calif.) supplemented with 10% fetal bovine serum (FBS; Invitrogen, Carlsbad, Calif.), […]. Tissue cultures were maintained at 37° C. in a humidified 5% CO2 incubator, and medium was exchanged every 3 days. […]"}, "[5]": {"test_system": "oligodendroglial progenitor cells (OPCs)", "test": "LPS-induced OPC death (MTT assay)", "format": "cell-based, rat", "settings": "30 μM BHDPC 2 h, LPS 24 h", "protocol": "as §2, §1, §3"}, "[6]": {"test_system": "primary cortical neurons", "test": "α-tubulin and MAP2 expression in primary cortical neurons", "format": "cell-based, rat", "settings": "10 and 30 μM, 14 days", "protocol": "Primary culture of cortical neurons was prepared from embryonic day 18±0.5 Sprague-Dawley rats. One day after seeding, primary cortical neurons were treated with 10 and 30 μM BHDPC for 14 days. Fourteen days following BHDPC treatment, primary cortical neurons cultured on glass coverslips (Thermo Scientific) were fixed with 4% paraformaldehyde for 15 min. Following fixation, neurons were permeabilized with 0.1% Triton X-100 in Tris-buffered saline for 7 min, and blocked with 4% bovine serum albumin and 2% goat serum for 1 h. α-tubulin and MAP2 were incubated at 1:400 dilution for 1 h at room temperature and overnight at 4° C. respectively. Following primary antibody incubation, neurons were incubated with Alexa Flour 488 or 568 secondary antibodies (anti-rabbit or anti-mouse) at 1:400 dilution for 1 h at room temperature. The coverslips were then mounted on microscopic slides (Thermo Scientific) using ProLong® Gold Antifade Mountant (Molecular Probes). Neurons were imaged using the LSM 780 laser scanning microscope (Carl Zeiss). Fluorescence intensity was measured using Image J."}}, "note": "Entries after “also recorded” stand apart in the source; their conditions may differ.", "data": [{"compound": "COc1cc(C2C(C(=O)OCc3ccccc3)=C(C)Nc3nnnn32)ccc1O", "note": "(centres unmarked) [BHDPC, benzyl 7-(4-hydroxy-3-methoxyphenyl)-5-methyl-4,7-dihydrotetrazolo[1,5-a]pyrimidine-6-carboxylate]", "values": [{"measurement": "MPP+-induced neuronal death (cell viability, MTT)", "setting": "[1]", "value": "prevented MPP^+-induced dopaminergic neuronal death"}, {"measurement": "mitochondrial membrane potential (Δφm) compared to the control group", "setting": "[2]; 3 μM", "value": 53, "unit": "%"}, {"measurement": "mitochondrial membrane potential (Δφm) compared to the control group", "setting": "[2]; 10 μM", "value": 64, "unit": "%"}, {"measurement": "MPP+-induced mitochondrial membrane potential (Δψm) loss, in words", "setting": "[2]; 30 μM, 2 mM MPP+ 36 h", "value": "attenuated"}, {"measurement": "mitochondrial membrane potential (Δφm) compared to the control group", "setting": "[2]; 30 μM", "value": 75, "unit": "%"}, {"measurement": "MPP+-induced caspase 3 activation", "setting": "[3]; 30 μM pre-treatment, 2 mM MPP+ 36 h", "value": "significantly reduced; also recorded: attenuated"}, {"measurement": "caspase 3 activity", "setting": "[3]; BHDPC alone, without MPP+", "value": "did not affect caspase 3 activity"}, {"measurement": "hydrogen peroxide-induced cell death", "setting": "[4]", "value": "dramatically attenuated"}, {"measurement": "LPS-induced cell death", "setting": "[5]", "value": "reduced LPS-induced cell death"}, {"measurement": "level of microtubule-associated protein (MAP2)", "setting": "[6]", "value": "increase levels"}, {"measurement": "level of α-tubulin", "setting": "[6]", "value": "increase levels"}]}]}
